Source: patent US6177409A, “Method for the site specific synthesis of novel 3-hydroxypyridin-4(1H)ons derivatives from aminomonosaccharides or aminoitols, products obtained by this method and their applications” (priority 1996, dated 2001)

Tests used:
mice = assay: in vivo
Experimental: (§1) The samples are put in a solution either in water or in a mixture of water-DMSO (3:2; v/v) so as to obtain solutions of varying concentrations,either lower than or equal to 130 g·L^-1; the volumes injected are calculated on the basis of 0.2 mL for a mouse body weight of 20 g.
(§2) The toxicity is evaluated starting from aqueous solutions, either buffered or not with NaH2 PO4 or else with Na2 HPO4, or else after addition of a stoichiometric quantity of NaHCO3.
(§3) The 2-methyl-3-hydroxypyridine-4(1H)-one derivatives of glycerol (14), of xylitol (17), of mono-acetone xylose (12) and of solketal (11) were injected by I. V. route.
(§4) The 2-methyl-3-hydroxypyridine-4(1H)-one compound of diacetone xylitol (10) was injected by I. P. route.

in vivo = settings: mouse, in vivo
Experimental: as §1, §2, §3, §4

[1] = male and female mice, I.V., (maximum solubility)

## Cc1c(O)c(=O)ccn1CC(O)CO (centres unmarked) [Compound 14, 1-glyceryl-2-methyl-3-hydroxypyridine-4(1H)-one]
mice; female, I.V., 1300 mg/kg, water 60/DMSO 40, 5 mice
  Mortality (number of mice): 0
mice; female, I.V., 1300 mg/kg, water, 5 mice
  Mortality (number of mice): 0
mice; [1]
  Acute toxicity in mice: totally innocuous at 1300 mg.kg^-1
mice; male, I.V., 1300 mg/kg, water 60/DMSO 40, 5 mice
  Mortality (number of mice): 0
mice; male, I.V., 1300 mg/kg, water, 5 mice
  Mortality (number of mice): 0
mice; mice, I.V., 1300 mg.kg^-1, running text
  toxicity at 1300 mg/kg: non-toxic
Solubility in water; water
  solubility: > 130 mg/mL

## Cc1c(O)c(=O)ccn1CC1OC(C)(C)OC1C1COC(C)(C)O1 (centres unmarked) [Compound 10, 1-(2',3': 4',5'-di-O-isopropylidene-xylityl)-2-methyl-3-hydroxypyridine-4(1H)-one]
In vivo; ip, LD50
  LD50: > 650 mg/kg
mice; mice
  toxicity compared with L1: weaker toxicity than L1
mice; mouse, in vivo, ip
  Macroscopic lesions of visceral organs: No visceral organ presented macroscopic lesions
mice; mouse, in vivo, ip, 325 mg/kg
  Mortality (number of mice): 0
  Secondary effects: none (5/5)
mice; mouse, in vivo, ip, 650 mg/kg
  Mortality (number of mice): 0
  Secondary effects: none (5/5)
Solubility in water; acute toxicity doses, compared with L1
  solubility at the doses studied: less soluble at the doses studied
Solubility in water; water
  solubility in water: weak

## Cc1c(O)c(=O)ccn1CC(O)C(O)C(O)CO (centres unmarked) [Compound 17, 1-xylityl-2-methyl-3-hydroxypyridine-4(1H)-one]
mice; [1]
  Acute toxicity in mice: totally innocuous at 1000 mg.kg^-1
mice; mice
  toxicity compared with L1: less toxic than L1
mice; mice, I.V.
  first toxic effects (=LD10): 1300 mg/kg
mice; mouse, in vivo, iv
  Onset of significant decrease in spontaneous activity after injection: ~2 h
mice; mouse, in vivo, iv, 650 mg/kg
  Mortality (number of mice): 0
  Secondary effects: none (5/5)
mice; mouse, in vivo, iv, 1000 mg/kg
  Mortality (number of mice): 0
  Secondary effects: none (5/5)
mice; mouse, in vivo, iv, 1300 mg/kg
  Mortality (number of mice): 0

## Cc1c(O)c(=O)ccn1C[C@H]1O[C@@H]2OC(C)(C)O[C@@H]2[C@H]1O [Compound 12, 1-(1',2'-O-isopropylidene-α-D-xylofuranose-5-yl)-2-methyl-3-hydroxypyridine-4-(1H)-one]
mice; female mice, I.V.
  LD10: 1000 mg/kg
mice; male mice, I.V.
  Acute toxicity in mice: totally innocuous at 1300 mg.kg^-1
mice; mice
  toxicity compared with L1: less toxic than L1
mice; mice, I.V.
  first toxic effects (=LD10): 1300 mg/kg
mice; mouse, in vivo, iv, 1000 mg/kg
  Cause of death: respiratory deficiency
  Mortality times: 4 min
mice; mouse, in vivo, iv, 1300 mg/kg
  Mortality times: 360 to 1080 min

## Cc1c(O)c(=O)ccn1CC1COC(C)(C)O1 (centres unmarked) [Compound 11, 1-(2',3'-O-isopropylidene-glyceryl)-2-methyl-3-hydroxypyridine-4(1H)-one]
In vivo; iv, LD50 ± SD
  LD50: 817 ± 75 mg/kg
mice; mice
  toxicity compared with L1: toxicity higher than that of L1
mice; mouse, in vivo, iv
  LD50 ± SD: 745 ± 84 mg/kg
  neurophysiological effects: induces adverse neurophysiological effects
mice; mouse, in vivo, iv, 500 mg/kg
  Mortality (number of mice): 0
mice; mouse, in vivo, iv, 650 mg/kg
  Mortality times: 3 min
mice; mouse, in vivo, iv, 800 mg/kg
  Mortality (number of mice): 2
mice; mouse, in vivo, iv, 1000 mg/kg
  Mortality (number of mice): 4
  Secondary effects: 1 min. convulsive phase followed by 10 min. of drop in spontaneous activity (10/10)
mice; mouse, in vivo, iv, 1300 mg/kg
  Mortality (number of mice): 5
  Mortality times: 30-90
  Secondary effects: death preceded by a marked convulsive phase (10/10)

## Cc1c(O)c(=O)ccn1C [Compound L1, 1.2-dimethyl-3-hydroxypyridine-4(1H)-one, reference compound]
In vivo; 1300 mg/kg
  mortality: 100%
mice; mouse, in vivo, ip, 650 mg/kg, pH 7
  Secondary effects: spontaneous decrease in activity xx min. before death (5/5)
mice; mouse, in vivo, iv, 325 mg/kg, pH 2.5
  Secondary effects: irritation at injection, spontaneous decrease in activity 2-4 min. (5/5)
